row,Compound,melting point
1,CCC(C)COC(=O)Oc1ccc(-c2ccc(OC(=O)OCC(C)CC)cc2)cc1 (stereo not drawn),85.5 °C
2,O=C(NCc1cccnc1)c1sc(N2CCN(Cc3ccc(F)cc3)C2=O)nc1C(F)(F)F,161 to 162 °C
3,Cc1c(Cc2cccc(C(F)(F)F)c2)oc2c(-c3cccc(C(=O)O)c3)cccc12,200 to 201 °C
4,Oc1cc(C(F)CBr)c2oc(-c3ccc(O)c(F)c3)nc2c1 (stereo not drawn),185 to 186 °C
5,CNC(=O)c1cnn(C2(C)CCCC2)c1C#N,139 to 141 °C
6,CN1COCNC1=N[N+](=O)[O-],137 to 139 °C
7,COCC(=O)Nc1cccc(-n2nc(OC)c(=O)n(Cc3ccc(Cl)cc3)c2=O)c1,143 °C
8,COC(=O)c1nccnc1NS(=O)(=O)c1cccc(Cl)c1Cl,177 to 178 °C
9,COc1ccc(C(=O)Nc2cc(NC(=O)c3cccc(N(C)C)c3)ccc2F)cc1OC,187 to 188 °C
10,CCc1cccc2c(-c3nc(OC)cc(OC)n3)c(C)[nH]c12,90.3 to 94.8 °C
11,O=C(CC(F)(F)F)NCC(=O)n1ccc2cc(/C=C/C(c3cc(Cl)c(F)c(Cl)c3)C(F)(F)F)ccc21 (stereo not drawn),121 to 126 °C
12,NC(=O)C1(c2c(F)cccc2F)CC1,137 to 138 °C
13,CNC(=O)C1=CC(C)(C)Oc2ccc(C(F)(F)F)cc21,146 to 150 °C
14,O=S(=O)(Nc1ccc(C2COc3cc(O)c(O)cc3C2)cc1)c1ccccc1 (stereo not drawn),152 to 154 °C
15,CC1(C)C(=O)C(C(=O)c2ccc(Cl)cc2[N+](=O)[O-])C(=O)C(C)(C)C1=O,76 to 82 °C
16,COc1ccc(S(=O)(=O)n2ccc3ccnc(-c4ccc(N(C)C)cc4)c32)cc1,112 to 114 °C
17,Cc1c(N2CC(O)C2)c(F)cc2c(=O)c(C(=O)O)cn(-c3nc(N)c(F)cc3F)c12,245 to 247 °C
18,CC(C)(C)[S@@](=O)/N=C/c1cc(F)cc(C#N)c1,93 to 99 °C
19,N#Cc1ccc(OCc2ccc3c(c2)OCO3)cc1OC(C(=O)O)c1ccccc1C(F)(F)F (racemic),137 to 138 °C
20,CC(C)c1ccc2c(c1)C(=O)c1ccc(-c3nnn(C)n3)cc1S2(=O)=O,219 to 221 °C
21,COc1ccc(CNc2nc(OCc3ccccn3)ncc2C(=O)O)cc1Cl,201 to 203 °C
22,CN(C)C=Nn1cc(-c2ccc([N+](=O)[O-])o2)nn1,239 to 241 °C
23,Nc1ccc(NCCO)c(C(F)(F)F)c1,74 to 75 °C
24,CC(CCCCCCCCCCCCC(=O)O)CC(=O)O (stereo not drawn),77 to 78 °C
25,CCCc1nc2c(N)nc3cc(-c4ccccc4NC(C)=O)ccc3c2s1,206 to 209 °C

row,Compound,melting point
1,COc1ccc(COC(C)(C)C(=O)Nc2c(N)n(Cc3ccc(OC)c(OC4CCCC4)c3)c(=S)[nH]c2=O)cc1,172 to 184 °C
2,CCOC(=O)C(Oc1cccc2c1ccn2C(=O)OCc1ccccc1)C(=O)OCC,77 to 78 °C
3,CCOC(=O)c1cccc(CSc2nc(-c3ccc(OC)cc3)c(-c3ccc(OC)cc3)[nH]2)c1,147 to 149 °C
4,Cn1c(=O)c(C(=O)O)c(-c2ccccc2Cl)c2cccnc21,178 to 180 °C
5,O=C(N1CCCC1)N1Cc2c(-c3ccc(F)cc3)ncn2-c2ccccc21,217 to 218 °C
6,O=C1CCC(N2Cc3c(OCc4ccc(CN5CCCCC5)cc4)cccc3C2=O)C(=O)N1 (stereo not drawn),186 to 188 °C
7,C#CCOc1cc(-n2c(=O)cc(C(F)(F)F)n(C)c2=O)c(F)cc1Br,134 °C
8,Nc1c(C(=O)c2cc(F)cc(F)c2)[nH]c2cc(Cl)ccc12,149 to 151 °C
9,O=C(N[C@H]1CCCNC1=O)c1cccc(F)c1F,160 to 162 °C
10,CC(CC1(c2ccc(Cl)cc2)CCC1)NC=O (stereo not drawn),71 to 73 °C
11,Cc1cc(=O)[nH]c(NC(=N)Nc2ccccc2)n1,265 °C
12,COCCN(CCOC)CC1=Cc2ccsc2S(=O)(=O)N1Cc1ccc(OC)cc1,75 to 77 °C
13,Cc1ccccc1-c1cn(C)cc(-c2cccc(C(F)(F)F)c2)c1=O,144 to 147 °C
14,CCOCc1nc2c(N)nc3cccnc3c2n1Cc1cc(-c2ccc(F)cc2)no1,190 to 191 °C
15,O=C(O)COc1ccc(C(=O)c2ccc([N+](=O)[O-])cc2)c(Cl)c1Cl,172 to 175 °C
16,CCCC(=O)Nc1ccc(OC)c(C(C)=O)c1,113 °C
17,Fc1cc(Cl)c2nc(Cl)sc2c1-n1nc2c(c1Cl)CCCC2,161 to 163 °C
18,NC1=NS(=O)N=C1NCCCN(Cc1ccsc1)c1ccccn1 (stereo not drawn),140 to 142 °C
19,O=C(Nc1ccc(N2CCOCC2=O)cc1)[C@H]1C[C@@H](O)CN1C(=O)/C=C/c1ccc(Cl)s1,151 °C
20,CCCN(Cc1ccc(-c2ccccc2-c2nnn[nH]2)cc1)c1nc(C)cnc1C(=O)OCC,172 to 174 °C
21,OCCc1ccc(COc2cccc(-c3c(-c4ccccc4)cnc4c(C(F)(F)F)cccc34)c2)cc1,50 °C
22,C[C@]1(COc2ccc(N3CCN(C(=O)OCc4ccc(Cl)cc4)CC3)cc2)Cn2cc([N+](=O)[O-])nc2O1,184 to 188 °C
23,COC(=O)c1sc2c(c1O)CCCC2,55 to 58 °C
24,BrCCCCCCCCCCCCN1CCN(c2ccccc2)CC1,26 to 28 °C
25,CC1CC(=Cc2ccccc2OCC(O)CN2CCC(c3ccc4ccccc4c3)CC2)C(=O)O1 (stereo not drawn),142 to 144 °C

row,Compound,melting point
1,COc1ccc2c(c1)CCC1C2C(O)CC2(C)C1CC1OCCOC12 (stereo not drawn),125 to 126 °C
2,O=C(c1ccc(Nc2ccnc3cc(C(F)(F)F)ccc23)cc1)N1CCN(c2c(Cl)c(Cl)nc(Cl)c2Cl)CC1,222 to 224 °C
3,N#Cc1ccc([C@@H]2CN(S(=O)(=O)c3cccc(C(=O)O)c3)C[C@@]23NC(=O)N(c2cc(Cl)cc(Cl)c2)C3=O)cc1 (relative stereo),150 °C
4,O=C(O)CNC(=O)c1ccc(C(=O)NS(=O)(=O)c2ccc(C(=O)NCCc3ccccc3)cc2)cn1,263 to 265 °C
5,O=C(NCCCCCOc1cc(CN2CCCCC2)ccn1)c1cn[nH]c1,105 to 106 °C
6,Cc1ccc(Cc2cnc(NCCCNc3ncc(Br)cc3C)[nH]c2=O)cn1,48 to 51 °C
7,CCOC(=O)c1ccc2c(c1)N(C(=O)c1ccccc1)Cc1ccccc1O2,149 to 150 °C
8,CC1(O)CCN(C(=O)C(c2ccccc2)n2cnc3[nH]ncc3c2=S)CC1 (stereo not drawn),140 to 144 °C
9,OC(Cn1cncn1)(c1ccc(F)cc1F)C(F)n1cncn1 (stereo not drawn),117 to 123 °C
10,CCc1nccn1-c1ccccc1C(=O)Nc1ccc(C(=O)N2CCC(F)(F)/C(=C\C(=O)NC3CC3)c3ccccc32)cc1,> 260 °C
11,CC(C)NCC(=O)N1c2ccccc2N(C)S(=O)(=O)c2ccccc21,115 to 117 °C
12,CCSc1nc(C)[nH]c1CO,153 °C
13,CCCc1nc2c(N)nc3ccccc3c2n1CCC1(O)CCOCC1,181 to 183 °C
14,CCOc1c(C(=O)NC2CN3CCC2CC3)cc(Cl)c2c1CCCN2 (stereo not drawn),160 °C
15,O=c1ccoc2cc(OCCCCl)ccc12,72 to 73 °C
16,CCCCCCCCCCCCc1ccc(S(=O)(=O)Nc2nncs2)cc1,126 to 127 °C
17,CC(C)(C)c1ccc(Cn2c(=O)n(Cc3ccc(C(C)(C)C)cc3)c3ccccc32)cc1,164 to 168 °C
18,CCCc1c(C(=O)C2CCCC2)c2ccc(C(N)=O)cc2n1Cc1cc2c(cc1Cl)OCO2,236 to 237 °C
19,C[C@@H]1CN(C(=O)N(c2ccccc2)c2ccccc2)[C@@H](C)CN1C(=O)N(c1ccccc1)c1ccccc1,255 to 257 °C
20,CCC1=Nc2c(C)nn(C)c2C2=NC(C)CN12 (stereo not drawn),153 to 155 °C
21,O=C(OCc1ccccc1)C1(NS(=O)(=O)c2ccc(Oc3ccc(F)cc3)cc2)CCCC1,97 to 97.5 °C
22,O=C(O)c1c(F)cc(F)c(F)c1C(=O)O,153 to 155 °C
23,Cc1c[nH]c2c(/C=C/C#N)cccc12,225 to 227 °C
24,Cn1cc(C(=O)NCc2ccc(Cl)cc2)c(=O)c2cc(CN3CCOCC3)cc(C#CCC(CO)CO)c21,190 to 193 °C
25,CN(C)C1(c2ccccc2)CCC(=O)CC1,104 to 108 °C

row,Compound,melting point
1,CC(=O)c1ccc(OCC(O)COc2cccc([N+](=O)[O-])c2)cc1O (stereo not drawn),119 to 122 °C
2,O=C1Cc2cc(NCc3ccccc3)ccc2N1,203 to 206 °C
3,CN(C)[C@H]1CCN(C(=O)c2ccc(Cc3cn(C)c4ccccc34)cc2)C1,101 to 105 °C
4,N#Cc1ccc(-c2ccc(OC(F)(F)F)c(CNC3CCN(C(=O)C(N)=O)CC3c3ccccc3)c2)c(F)c1 (stereo not drawn),142 to 144 °C
5,CCOC(=O)c1nnn(Cc2ccccc2)c1N,153 °C
6,CC(=O)Oc1ccccc1C(=O)Nc1nc(S(C)=O)cs1 (stereo not drawn),167 to 169 °C
7,CCC12CCC3C4CCCC=C4CCC3C1CCC2O (stereo not drawn),118 to 120 °C
8,Cc1[nH]c2ccccc2c1C1=C(Cl)C(=O)C=C(Cl)C1=O,158 to 159 °C
9,COc1nc(-c2c(F)cccc2F)nn1-c1ccccc1C(F)(F)F,118 to 119 °C
10,CCCCOCC(O)COc1cc(C)c(OCC(O)COCCCC)cc1C (stereo not drawn),< 30 °C
11,Cc1ccc(CN2CCC(NC(=O)NC(=O)c3ccccc3)CC2)cc1C,239 to 240 °C
12,CCOC(=O)C1CN(CC)c2nc(OC)ncc2C1=O (stereo not drawn),118 °C
13,CC(=O)OC1CC2(C)C(=O)CCC2C2CCC3=CC(=O)C=CC3(C)C12F (stereo not drawn),177 to 178 °C
14,CC1(C(=O)C(C(O)C(Cl)(Cl)CCl)n2cncn2)CC1 (stereo not drawn),182 to 186 °C
15,CC(=O)Nn1c2c(c3ccccc31)Cc1ccccc1-2,> 240 °C
16,Cc1cccc(-c2[nH]c(C(C)C)nc2-c2cccc(-c3ccc(S(=O)(=O)N(C)C)cc3)c2)n1,93 to 96 °C
17,CCCCCCCCCCCCc1ccc(S(=O)(=O)Nc2nnc(C(C)(C)C)s2)cc1,117 to 118 °C
18,Cc1cc(Oc2c(Cl)cc(C(F)(F)F)cc2Cl)nn1C(=O)NOCc1ccccc1,98 to 100 °C
19,CN(C)Cc1ccc2sc(S(N)(=O)=O)cc2c1,172 to 174 °C
20,Cc1ccc(-c2cc3c(s2)CCCC(C(=O)O)=C3)cc1,250 to 251 °C
21,O=C(O)CCSCSCC(C(=O)O)c1cccc(OCc2ccc3ccc(Cl)cc3n2)c1 (stereo not drawn),142 °C
22,Cc1c(OCCCO)ccnc1CO,65 to 70 °C
23,CCCNC(=S)NCCCCn1c(-c2ccccc2)nc2c(N)nc3ccccc3c21,113 to 116 °C

# Source: a melting point compilation (Tetko et al.; mined from patent text by program, amines drawn as free bases though some values may be those of a salt)
